# Laboratory results published in patent US5773236A, “Assay for glutathiane transferase using polyhaloaryl-substituted reporter molecules” (Molecule Probes, Inc., priority 1997, dated 1998).
# Experiments:
# NIH-3T3 cells = assay: Marker gene expression by flow cytometry, NIH-3T3 (Example 62); assay type: cell-based; details: 0.2 mM dye, 37° C., 30 minutes
# Procedure: (§1) NIH-3T3 and CRE BAG2 cells are maintained as in Example 61. A 10 mM stock solution of (((3 -(2-pentafluorobenzoyl)amino)ethyl)amino)carbonyl)-umbelliferyl β-D-galactopyranoside (Compound 37; Example 37) is prepared in DMF. A 10 mM stock solution of 4-chloromethylcoumarin β-D-galactopyranoside (CMCG; Molecular Probes #D-2921) is prepared in a 1:1 mixture of DMSO and water. NIH-3T3 and CRE BAG2 cells are trypsinized, washed with phosphate buffered saline (PBS), pH 7.2 and resuspended in D-MEM with 10% BCS. To separate 1 mL cell suspensions are added the dye stock solutions to obtain final concentrations of 0.2 mM dye. Incubation is carried out at 37° C. for 30 minutes. Cells are centrifuged to form a pellet, the supernatant is discarded and the cells are washed twice with PBS, pH 7.2 and suspended in the same buffer. Cells are analyzed by flow cytometry using a Becton-Dickinson FACS Vantage flow cytometer. […] However, CRE BAG 2 cells stained with the Compound 37 show fluorescence that is greater than 25-fold that shown by autofluorescent control cells. For the CRE BAG 2 cells stained with CMCG, the fluorescence intensity is only 8-fold greater than that of the autofluorescent control cells.
# CRE BAG 2 cells [1] = assay: Marker gene expression by flow cytometry, CRE BAG 2 (Example 62); assay type: cell-based; details: 0.2 mM dye, 37° C., 30 minutes
# Procedure: as §1
# P3×63AG8 cells = assay: Peptidase substrate in live cells, flow cytometry (Example 58); assay type: cell-based; details: 1 μM, 37° C., 30 minutes
# Procedure: P3×63AG8 cells obtained from American Type Culture Collection Co., Rockville, Md. are used. They are grown in a humidified atmosphere of 5% CO2 in Dulbecco's modified Eagle's medium (D-MEM) supplemented with 10% calf serum, 50 μg/mL gentamycin, 300 μg/mL L-glutamine and 10 mM HEPES, pH 7.4. Compound 13-Arg (Prepared as in Examples 12 and 13) is dissolved at 1 mM in DMSO. The P3×63AG8 cells are trypsinized, washed with phosphate-buffered saline (PBS), pH 7.2 and resuspended in 1 mL of the same buffer. 1 μL of the stock reagent is added to 1 mL of the cell suspension to obtain a final concentration of 1 μM. Incubation is carried out at 37° C. for 30 minutes. Cells are centrifuged to form a pellet, the supernatant is discarded, the cells are washed twice with PBS, pH 7.2 and resuspended in 300 μL of the same buffer. Cells are analyzed by flow cytometry using the Becton-Dickinson FACS Vantage flow cytometer.
# CRE BAG 2 cells [2] = assay: Peptidase substrates in live cells, fluorescence microscopy (Example 59); assay type: cell-based; details: 1 μM, 0.5 μM or 0.1 μM, 37° C., 30 minutes
# Procedure: CRE BAG 2 cells obtained from American Type Culture Collection Co., Rockville, Md. are used. They are grown in a humidified atmosphere of 5% CO2 in D-MEM supplemented with 10% calf serum, 50 μg/mL gentamycin, 300 μg/mL L-glutamine and 10 mM HEPES, pH 7.4. 1 mM stock solutions of Compound 13-Leu (Example 13) and Compound 13-Arg substrate are prepared in DMSO. CRE BAG 2 cells are trypsinized, washed with phosphate-buffered saline, pH 7.2 and resuspended in 1 mL of the same buffer. 1 μL, 0.5 μL or 0.1 μL of the stock reagents is added to 1 mL of the cell suspension to obtain a final concentration of 1 μM, 0.5 μM or 0.1 μM. Incubation is carried out at 37° C. for 30 minutes. Cells are centrifuged to form a pellet, the supernatant is discarded and the cells are washed with PBS, pH 7.2 and suspended in the same buffer. Cells are mounted on slides and observed by fluorescence microscopy using filters optimized for fluorescein.
# [3] = test system: glutathione transferase (GST); assay: Reactivity with glutathione catalyzed by glutathione transferase, TLC (Example 50); assay type: biochemical
# Procedure: The suitability of Compound 1 (Example 1) and 5-(pentachlorobenzoylamino)fluorescein (Compound 48) as substrates for glutathione transferase (GST) in the presence of excess glutathione (GSH) is tested in vitro as follows: 5 mM GSH, 0.5 mM substrate (Compound 1 or Compound 48) and 20 micrograms GST (Sigma #G-6511, 70 units/mg) are combined in 0.1M phosphate buffer, pH 8.0, for 1 hour at 37° C. The reaction is terminated by spotting approximately 3 μL on silica gel TLC plates. The plate is developed using 1-butanol: methanol: water (3:1:1). […] Analysis of the reaction mixture by HPLC as in Example 52 confirms that the reaction product of Compound 1 with GSH is identical to the authentic Compound 1-GSH adduct as prepared in Example 45 (Compound 45).
# β-galactosidase = assay: Reactivity with thiol groups of proteins (Example 51); assay type: biochemical
# Procedure: To test the specificity of the Compound 1 reaction with GSH versus thiol-containing proteins, β-galactosidase (a protein that has several free thiols) is dissolved at 5 mg/mL in deoxygenated 0.1M phosphate, 0.1M NaCl, pH 7.5, and reacted under anaerobic conditions with 5-(pentafluorobenzoylamino)fluorescein diacetate (Compound 4, Example 3) or Compound 1 dissolved at 10 mg/mL in DMSO at a molar ratio of the reagent to protein of 15. This assay is performed both in the presence and absence of 30 mM N-ethyl maleimide (NEM) as an effective thiol-blocking reagent. The reactions are incubated at room temperature for 1 hour, stopped by the addition of hydroxylamine, pH 9 to a final concentration of 0.15M, and incubated for 2 more hours to hydrolyze the acetate groups. […] Consequently, no reaction of either Compound 4 or Compound 1 with β-galactosidase is detected under the described conditions.
# [4] = Quantitation of GSH in enzymatic reactions, TLC (Example 55); assay type: biochemical; details: 0.5 mM Compound 1, 10 μg/mL GST, limiting GSH, 1 hour, 37° C., UV hand lamp
# Procedure: (§2) A set of reactions as described in Example 48 are performed using limiting concentrations of GSH (0.1 μM-1 mM), to measure the range of sensitivity of the assay for quantitating GSH. Alternatively, the reaction is performed using excess GSH and limiting GST (0.1 μg/mL-20 μg/mL) to determine the suitability of the method to detect and quantitate glutathione transferase activity of isolated enzymes or of GST-fusion proteins.
# (§3) In one hour reactions at 37° C., using 0.5 mM Compound 1 (Example 1) as the substrate, 10 μg/mL GST and limiting GSH, the minimum amount of fluorescent Compound 1-GSH adduct (Compound 45) detectable by simple illumination with a long wavelength UV hand lamp corresponds to ~2-4 picomoles of GSH. When using excess GSH and variable amounts of GST, it is possible to detect by visible inspection the reaction product in solutions containing 5 μg/mL of enzyme spotted on TLC in 2 μL amounts: this spot corresponds to ~10 ng of GST. […] Quantitative measurement of the amount of product formed can be performed by either HPLC (Example 52), using a plate scanner (Example 53) or by extraction of the scraped silica gel spots into methanol or pH 8.0 buffer and measurement of the fluorescence against that of a series of dilutions of the authentic adduct (Example 45) in the same buffer using a fluorometer or microplate reader.
# GST [5] = assay: Quantitation of GST in enzymatic reactions, TLC (Example 55); assay type: biochemical; details: excess GSH, 2 μL spotted on TLC
# Procedure: as §2, §3
# GSH in BPAE cell lysate = assay: Determination of GSH in cell extracts (Example 56); assay type: biochemical, Bovine; details: 0.2 mM Compound 1, 5 μg GST, 2 hours, 37° C.; FIG. 3
# Procedure: (§4) Cultures of BPAE cells are trypsinized, pelleted, washed once in PBS and resuspended in 200 μL of distilled water in numbers from 200 to 1,000,000. The cells are lysed by repeated freezing and thawing and spun for 10 min. in a microfuge to eliminate the insoluble particles from the lysate, which contains both GSH and GST.
# To 150 μL of the lysate are added 5.5 μL of 1.8M MOPS pH 7.5, Compound 1 at the final concentration of 0.2 mM, 5 μg GST and distilled water to obtain the final volume of 200 μL. The reaction mixtures are incubated for 2 hours at 37° C. and analyzed by TLC by spotting 2 μL of each sample and developing as described in Example 48. The spots corresponding to the product formed by the different amounts of cells, because of their endogenous GSH is quantitated on a plate scanner as described in Example 53. […] Quantitation of GSH can also be performed by separating the product from the reaction mixture by HPLC as in Example 52.
# [6] = test system: glutathione transferase (endogenous GST in BPAE cell lysates); assay: Determination of GST activity in cell extracts (Example 56); assay type: biochemical, Bovine
# Procedure: as §4
# The assay for the amount of GST activity present in cell lysates (endogenous GST) is performed using the same system as above with the exception that 5 mM GSH is added to the reaction mixture to ensure that there is a sufficient excess of GSH to saturate the enzyme. The reaction is incubated for one hour at 37° C. and 2 μL of each sample are spotted on TLC plates and developed as described in Example 48. Product formation is quantitated using a plate scanner as for GSH determination (as in Example 53). […] Similarly, this assay system can be used to quantitate GST-fusion proteins.
# GST [7] = assay: HPLC analysis of the in vitro reaction mixture (Example 52); assay type: biochemical; details: with GST, absorbance at 500 nm
# Procedure: To determine whether a compound is a selective substrate for glutathione transferase, a 2 mM ethanol stock solution of a polyhalogenated derivative (for example the series of butylbenzamides described in Example 49), reduced glutathione (phosphate buffer stock solution, 5 mM) and glutathione S-transferase (phosphate buffer stock solution, 1 unit/mL) are incubated at 25° C. in the mixture of 98% 0.1M K2 HPO4 -KH2 PO4 buffer (pH7.5) that contains 1 mM EDTA and 2% ethanol for 2 h. The reaction is then stopped by adding 10% H2 O2.
# Reaction mixtures with and without GST using Compound 1 as the substrate, are prepared as described in Example 48. The solutions are mixed overnight with three volumes of ethyl acetate followed by centrifugation at 15,000×g for 30 min to separate the organic and aqueous layers. HPLC analysis using a Rainin HPLC equipped with a C18, 5 μm, 100 Å, 4.6×250 mm MICROSORB-MV reverse phase column. Products are separated in 30 min with a gradient of 5% to 95% solvent B in Solvent A at a flow rate of 1 mL/min, where solvent A is 0.1M triethylammonium acetate, pH 7.0, and solvent B is acetonitrile (see FIG. 1). Products are detected by reading the absorbance at 500 nm. Peaks are identified and, if desired, quantitated by comparing retention times with authentic samples of the glutathione adduct of Compound 45 (Example 45).
smiles,measurement,setting,value
"O=C(NCCNC(=O)c1cc2ccc(O[C@@H]3O[C@H](CO)[C@H](O)[C@H](O)[C@H]3O)cc2oc1=O)c1c(F)c(F)c(F)c(F)c1F [Compound 37, ((((3-(2-pentafluorobenzoyl)amino)ethyl)amino)carbonyl)umbelliferyl β-D-galactopyranoside]",fluorescence versus autofluorescent cells,NIH-3T3 cells,do not show fluorescence greater than that observed for autofluorescent cells
same,fluorescence relative to autofluorescent control cells,CRE BAG 2 cells [1],greater than 25 fold
N=C(N)NCCC[C@H](N)C(=O)Nc1ccc2c(c1)Oc1cc(NC(=O)c3c(F)c(F)c(F)c(F)c3F)ccc1C21OC(=O)c2ccccc21 (stereo partly drawn) [Compound 13-Arg],cell fluorescence (FL 1 channel),P3×63AG8 cells,fluorescence levels greater than the cell's autofluorescence
same,"staining of cells, fluorescence microscopy",CRE BAG 2 cells [2],punctate green fluorescence associated with organelles
"O=C1OC2(c3ccc(O)cc3Oc3cc(O)ccc32)c2ccc(NC(=O)c3c(F)c(F)c(F)c(F)c3F)cc21 [Compound 1, 5-(pentafluorobenzoylamino)fluorescein]",adduct formation with glutathione in presence of GST,"[3]; 5 mM GSH, 0.5 mM substrate, 20 micrograms GST, pH 8.0, 1 hour, 37° C.",forms a fluorescent adduct with glutathione
same,reaction in control without GST,[3]; GST omitted,very low or no reaction
same,"fluorescent proteins formed, gel electrophoresis",β-galactosidase; molar ratio of reagent to protein 15,no fluorescent proteins are formed
same,"reaction with β-galactosidase, TLC","β-galactosidase; molar ratio of reagent to protein 15, pH 7.5, 1 hour, with and without 30 mM NEM",no reaction
same,"minimum amount of adduct detectable, corresponding to GSH",[4],2-4 picomoles
same,amount of GST corresponding to detectable spot,GST [5],~ 10 ng
same,enzyme (GST) concentration detectable by visible inspection,"GST [5]; variable GST, 1 hour, 37° C.",5 µg/mL
same,plot of fluorescence intensity of Compound 1-GSH adduct versus number of cells (GSH),GSH in BPAE cell lysate,good linearity
same,usefulness for determination of GST activity in cell lysates,"[6]; 5 mM GSH, one hour, 37° C., FIG. 4",useful for the determination of the activity of GST activity in cells lysates
same,adduct formation in absence of enzyme,[6]; high concentration of both substrate and GSH,a trace amount of adduct forms
same,products in aqueous layer by HPLC,GST [7],two major peaks with elution times corresponding to the Compound 45 and to the unreacted Compound 1
